In ChEMBL document CHEMBL1143801, “Synthesis, SAR and antibacterial studies on novel chalcone oxazolidinone hybrids” (2007):
Values after ≈ are worked out from the molar mass of the structure shown.

Tests used:
Assay type in all cases: functional
[1] = test system: Enterococcus faecalis; assay: Antibacterial activity against Enterococcus faecalis NCTC 12201
[2] = test system: Enterococcus faecalis; assay: Antibacterial activity against Enterococcus faecalis ATCC 29212
[3] = test system: Staphylococcus aureus; assay: Antibacterial activity against Staphylococcus aureus ATCC 49951
[4] = test system: Staphylococcus aureus; assay: Antibacterial activity against Staphylococcus aureus ATCC 29213
[5] = test system: Enterococcus faecium; assay: Antibacterial activity against Enterococcus faecium ATCC 12202
[6] = test system: Staphylococcus aureus; assay: Antibacterial activity against Staphylococcus aureus ATCC 33591

SMILES | MIC [1] | MIC [2] | MIC [3] | MIC [4] | MIC [5] | MIC [6]
COc1ccc(/C=C/C(=O)c2ccc(N3C[C@H](CNC(C)=O)OC3=O)cc2)cc1OC | > 32 µg/mL | > 32 µg/mL | > 32 µg/mL | > 32 µg/mL | > 32 µg/mL | > 32 µg/mL
CC(=O)NC[C@H]1CN(c2ccc(/C=C/C(=O)c3c(F)cc(Cl)cc3Cl)cc2)C(=O)O1 | > 32 µg/mL | > 32 µg/mL | > 32 µg/mL | > 32 µg/mL | > 32 µg/mL | > 32 µg/mL
CC(=O)NC[C@H]1CN(c2ccc(C(=O)/C=C/c3ncc[nH]3)c(F)c2)C(=O)O1 | 16 µg/mL (≈ 43 µM) | 16 µg/mL (≈ 43 µM) | 16 µg/mL (≈ 43 µM) | 16 µg/mL (≈ 43 µM) | 16 µg/mL (≈ 43 µM) | 16 µg/mL (≈ 43 µM)
CC(=O)NC[C@H]1CN(c2ccc(/C=C/C(=O)c3ccc(C)cc3)cc2)C(=O)O1 | 32 µg/mL (≈ 84.6 µM) | 32 µg/mL (≈ 84.6 µM) | 32 µg/mL (≈ 84.6 µM) | > 32 µg/mL | 32 µg/mL (≈ 84.6 µM) | 32 µg/mL (≈ 84.6 µM)
CC(=O)NC[C@H]1CN(c2ccc(C(=O)/C=C/c3ccco3)c(F)c2)C(=O)O1 | 16 µg/mL (≈ 43 µM) | 16 µg/mL (≈ 43 µM) | 8 µg/mL (≈ 21.5 µM) | 8 µg/mL (≈ 21.5 µM) | 16 µg/mL (≈ 43 µM) | 8 µg/mL (≈ 21.5 µM)
CC(=O)NC[C@H]1CN(c2ccc(C(=O)/C=C/c3cccs3)c(F)c2)C(=O)O1 | 32 µg/mL (≈ 82.4 µM) | 32 µg/mL (≈ 82.4 µM) | 32 µg/mL (≈ 82.4 µM) | 32 µg/mL (≈ 82.4 µM) | 32 µg/mL (≈ 82.4 µM) | 32 µg/mL (≈ 82.4 µM)
CC(=O)NC[C@H]1CN(c2ccc(C(=O)/C=C/c3nccn3C)c(F)c2)C(=O)O1 | 32 µg/mL (≈ 82.8 µM) | 32 µg/mL (≈ 82.8 µM) | 32 µg/mL (≈ 82.8 µM) | 32 µg/mL (≈ 82.8 µM) | 32 µg/mL (≈ 82.8 µM) | 32 µg/mL (≈ 82.8 µM)
CC(=O)NC[C@H]1CN(c2ccc(C(=O)/C=C/c3ccc(F)cc3)cc2)C(=O)O1 | > 32 µg/mL | > 32 µg/mL | > 32 µg/mL | > 32 µg/mL | > 32 µg/mL | > 32 µg/mL
COC(=S)NC[C@H]1CN(c2ccc(C(=O)/C=C/c3ccccn3)c(F)c2)C(=O)O1 | 1 µg/mL (≈ 2.41 µM) | 2 µg/mL (≈ 4.81 µM) | 1 µg/mL (≈ 2.41 µM) | 0.5 µg/mL (≈ 1.2 µM) | 2 µg/mL (≈ 4.81 µM) | 0.25 µg/mL (≈ 0.602 µM)
CC(=O)NC[C@H]1CN(c2ccc(N3CCOCC3)c(F)c2)C(=O)O1 [LINEZOLID] |  |  |  |  | 2 µg/mL (≈ 5.93 µM) | 1 µg/mL (≈ 2.96 µM)
CN[C@H](CC(C)C)C(=O)N[C@H]1C(=O)N[C@@H](CC(N)=O)C(=O)N[C@H]2C(=O)N[C@H]3C(=O)N[C@H](C(=O)N[C@H](C(=O)O)c4cc(O)cc(O)c4-c4cc3ccc4O)[C@H](O)c3ccc(c(Cl)c3)Oc3cc2cc(c3O[C@@H]2O[C@H](CO)[C@@H](O)[C@H](O)[C@H]2O[C@H]2C[C@](C)(N)[C@H](O)[C@H](C)O2)Oc2ccc(cc2Cl)[C@H]1O [VANCOMYCIN] | > 32 µg/mL | 2 µg/mL (≈ 1.38 µM) |  |  | > 32 µg/mL | 

Further lines, results first:

MIC [1] | MIC [2] | MIC [3] | MIC [4] | MIC [5] | MIC [6] | SMILES
> 32 µg/mL | > 32 µg/mL | > 32 µg/mL | > 32 µg/mL | > 32 µg/mL | > 32 µg/mL | CC(=O)NC[C@H]1CN(c2ccc(/C=C/C(=O)c3ccccc3)cc2)C(=O)O1
> 32 µg/mL | > 32 µg/mL | > 32 µg/mL | > 32 µg/mL | > 32 µg/mL | > 32 µg/mL | COC(=O)c1ccc(/C=C/C(=O)c2ccc(N3C[C@H](CNC(C)=O)OC3=O)cc2)cc1
32 µg/mL (≈ 90.3 µM) | 32 µg/mL (≈ 90.3 µM) | 16 µg/mL (≈ 45.2 µM) | 16 µg/mL (≈ 45.2 µM) | 32 µg/mL (≈ 90.3 µM) | 32 µg/mL (≈ 90.3 µM) | CC(=O)NC[C@H]1CN(c2ccc(C(=O)/C=C/c3ccco3)cc2)C(=O)O1
> 32 µg/mL | > 32 µg/mL | > 32 µg/mL | > 32 µg/mL | > 32 µg/mL | > 32 µg/mL | COc1cc(/C=C/C(=O)c2ccc(N3C[C@H](CNC(C)=O)OC3=O)cc2)cc(OC)c1OC
16 µg/mL (≈ 41.7 µM) | 16 µg/mL (≈ 41.7 µM) | 4 µg/mL (≈ 10.4 µM) | 8 µg/mL (≈ 20.9 µM) | 16 µg/mL (≈ 41.7 µM) | 4 µg/mL (≈ 10.4 µM) | CC(=O)NC[C@H]1CN(c2ccc(C(=O)/C=C/c3ccccn3)c(F)c2)C(=O)O1
> 64 µg/mL | > 64 µg/mL | > 64 µg/mL | > 64 µg/mL | > 64 µg/mL | 64 µg/mL (≈ 167 µM) | CC(=O)NC[C@H]1CN(c2ccc(/C=C/C(=O)c3cccc(F)c3)cc2)C(=O)O1
32 µg/mL (≈ 78.2 µM) | 32 µg/mL (≈ 78.2 µM) | 32 µg/mL (≈ 78.2 µM) | 32 µg/mL (≈ 78.2 µM) | 32 µg/mL (≈ 78.2 µM) | 32 µg/mL (≈ 78.2 µM) | CC(=O)NC[C@H]1CN(c2ccc(/C=C/C(=O)c3ccc([N+](=O)[O-])cc3)cc2)C(=O)O1
> 32 µg/mL | > 32 µg/mL | > 32 µg/mL | > 32 µg/mL | > 32 µg/mL | > 32 µg/mL | COc1ccc(C(=O)/C=C/c2ccc(N3C[C@H](CNC(C)=O)OC3=O)cc2)cc1
64 µg/mL (≈ 175 µM) | 64 µg/mL (≈ 175 µM) | 32 µg/mL (≈ 87.6 µM) | 32 µg/mL (≈ 87.6 µM) | 64 µg/mL (≈ 175 µM) | 32 µg/mL (≈ 87.6 µM) | CC(=O)NC[C@H]1CN(c2ccc(C(=O)/C=C/c3ccccn3)cc2)C(=O)O1
> 32 µg/mL | > 32 µg/mL | > 32 µg/mL | > 32 µg/mL | > 32 µg/mL | > 32 µg/mL | CC(=O)NC[C@H]1CN(c2ccc(C(=O)/C=C/c3ccccc3)cc2)C(=O)O1
